Test results as given in patent publication US9695155B2, “Herbicidal substituted pyrimidinyloxy benzene compounds” (E. I. DU PONT DE NEMOURS AND COMPANY, priority 2013, dated 2017).

Assays:
corn [1] = assay: Test A preemergence; format: in vivo, Zea mays; details: for Corn plant response rating: 500 g ai/ha
How it was run: (§1)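 Pre- and postemergence greenhouse screen. Soil: loam + sand. Spray carrier: solvent mixture, non-phytotoxic, with surfactant. Post timing at 1–2 leaves, height 2–10 cm. Readout: visual injury on a 0–100 scale roughly 10 days after application, untreated plants as reference.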

sedge, umbrella = assay: Test B flooded paddy test; format: in vivo, Cyperus difformis; details: Flood, 250 g ai/ha; 0 to 100 scale where 0 is no effect and 100 is complete control
How it was run: (§2)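 Evaluation is visual, against untreated controls, 13 to 15 days after treatment. Before treatment, plants reached the 2-leaf stage; pots were then flooded 3 cm deep, compound was added to the water, and that level was maintained. Ratings run 0 to 100, with 100 meaning complete control.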

velvetleaf [2] = assay: Test A postemergence; format: in vivo, Abutilon theophrasti; details: for Velvetleaf plant response rating: 125 g ai/ha
How it was run: as §1

morningglory [3] = assay: Test A postemergence; format: in vivo, Ipomoea spp.; details: for Morningglory plant response rating: 125 g ai/ha
How it was run: as §1

morningglory [4] = assay: Test A preemergence; format: in vivo, Ipomoea spp.; details: for Morningglory plant response rating (0 to 100 scale): 125 g ai/ha
How it was run: as §1

velvetleaf [5] = assay: Test A preemergence; format: in vivo, Abutilon theophrasti; details: for Velvetleaf plant response rating (0 to 100 scale): 125 g ai/ha
How it was run: as §1

wheat [6] = assay: Test A postemergence; format: in vivo, Triticum aestivum; details: for Wheat plant response rating: 125 g ai/ha
How it was run: as §1

pigweed [7] = assay: Test A postemergence; format: in vivo, Amaranthus retroflexus; details: for Pigweed plant response rating: 125 g ai/ha
How it was run: as §1

barnyardgrass [8] = assay: Test A preemergence; format: in vivo, Echinochloa crus-galli; details: for Barnyardgrass plant response rating: 500 g ai/ha
How it was run: as §1

barnyardgrass [9] = assay: Test A postemergence; format: in vivo, Echinochloa crus-galli; details: for Barnyardgrass plant response rating: 125 g ai/ha
How it was run: as §1

rice = assay: Test B flooded paddy test; format: in vivo, Oryza sativa; details: Flood, 250 g ai/ha; 0 to 100 scale where 0 is no effect and 100 is complete control
How it was run: as §2

giant foxtail [10] = assay: Test A postemergence; format: in vivo, Setaria faberii; details: for Foxtail, Giant plant response rating: 125 g ai/ha
How it was run: as §1

pigweed [11] = assay: Test A preemergence; format: in vivo, Amaranthus retroflexus; details: for Pigweed plant response rating (0 to 100 scale): 125 g ai/ha
How it was run: as §1

wheat [12] = assay: Test A preemergence; format: in vivo, Triticum aestivum; details: for Wheat plant response rating (0 to 100 scale): 125 g ai/ha
How it was run: as §1

giant foxtail [13] = assay: Test A preemergence; format: in vivo, Setaria faberii
How it was run: as §1

Heteranthera limosa = assay: Test B flooded paddy test; format: in vivo; details: Flood, 250 g ai/ha; 0 to 100 scale where 0 is no effect and 100 is complete control
How it was run: as §2

large (Lg) crabgrass [14] = assay: Test A preemergence; format: in vivo, Digitaria sanguinalis; details: for Crabgrass, Large plant response rating: 500 g ai/ha
How it was run: as §1

large (Lg) crabgrass [15] = assay: Test A postemergence; format: in vivo, Digitaria sanguinalis; details: for Crabgrass, Large plant response rating: 125 g ai/ha
How it was run: as §1

corn [16] = assay: Test A postemergence; format: in vivo, Zea mays; details: for Corn plant response rating: 125 g ai/ha
How it was run: as §1

barnyardgrass [17] = assay: Test B flooded paddy test; format: in vivo, Echinochloa crus-galli; details: Flood, 250 g ai/ha; 0 to 100 scale where 0 is no effect and 100 is complete control
How it was run: as §2

[18] = 0 to 100 scale where 0 is no effect and 100 is complete control
[19] = 500 g ai/ha, 0 to 100 scale where 0 is no effect and 100 is complete control
[20] = 125 g ai/ha, 0 to 100 scale where 0 is no effect and 100 is complete control
[21] = 1000 g ai/ha, 0 to 100 scale, 0 no effect, 100 complete control
[22] = 1000 g ai/ha, 0 to 100 scale, 0 no effect, 100 complete control, approx. 10 days

O=Cc1cccc(Oc2ncc(Cl)cn2)c1-n1cc(Cl)cn1 [Compound 205]
Corn plant response rating (0 to 100 scale) (corn [1]; 125 g ai/ha): 0 | Corn plant response rating (corn [1]; [18]): 0 | Plant response rating, Sedge, Umbrella (sedge, umbrella): 0 | Velvetleaf plant response rating (velvetleaf [2]; [18]): 10 | Plant response rating, Velvetleaf (velvetleaf [2]; [19]): 20 | Morningglory plant response rating (morningglory [3]; [18]): 0 | Plant response rating, Morningglory (morningglory [3]; [19]): 0 | Morningglory plant response rating (0 to 100 scale) (morningglory [4]): 0 | Morningglory plant response rating (morningglory [4]; [19]): 0 | Velvetleaf plant response rating (0 to 100 scale) (velvetleaf [5]): 0 | Velvetleaf plant response rating (velvetleaf [5]; [19]): 10 | Wheat plant response rating (wheat [6]; [18]): 0 | Plant response rating, Wheat (wheat [6]; [19]): 0 | Pigweed plant response rating (pigweed [7]; [18]): 0 | Plant response rating, Pigweed (pigweed [7]; [19]): 0 | Barnyardgrass plant response rating (0 to 100 scale, 0 is no effect, 100 is complete control) (barnyardgrass [8]; 125 g ai/ha): 0 | Barnyardgrass plant response rating (barnyardgrass [8]; [18]): 0 | Barnyardgrass plant response rating (barnyardgrass [9]; [18]): 0 | Plant response rating, Barnyardgrass (barnyardgrass [9]; [19]): 0 | Plant response rating, Rice (rice): 0 | Foxtail, Giant plant response rating (giant foxtail [10]; [18]): 0 | Plant response rating, Foxtail, Giant (giant foxtail [10]; [19]): 0 | Pigweed plant response rating (0 to 100 scale) (pigweed [11]): 0 | Pigweed plant response rating (pigweed [11]; [19]): 10 | Wheat plant response rating (0 to 100 scale) (wheat [12]): 0 | Wheat plant response rating (wheat [12]; [19]): 0 | Foxtail, Giant plant response rating (0 to 100 scale) (giant foxtail [13]; 125 g ai/ha): 0 | Foxtail, Giant plant response rating (giant foxtail [13]; [19]): 0 | Plant response rating, Ducksalad (Heteranthera limosa): 0 | Crabgrass, Large plant response rating (0 to 100 scale) (large (Lg) crabgrass [14]; 125 g ai/ha): 0 | Crabgrass, Large plant response rating (large (Lg) crabgrass [14]; [18]): 0 | Crabgrass, Large plant response rating (large (Lg) crabgrass [15]; [18]): 0 | Plant response rating, Crabgrass, Large (large (Lg) crabgrass [15]; [19]): 0 | Corn plant response rating (corn [16]; [18]): 0 | Plant response rating, Corn (corn [16]; [19]): 0 | Plant response rating, Barnyardgrass (barnyardgrass [17]): 0

N#Cc1cnc(Oc2cccc(C(F)F)c2-n2cc(Br)cn2)nc1 [Compound 175]
Plant response rating, Corn (corn [1]; [20]): 0 | Corn plant response rating (corn [1]; [18]): 0 | Plant response rating, Sedge, Umbrella (sedge, umbrella): 0 | Velvetleaf plant response rating (velvetleaf [2]; [18]): 0 | Plant response rating, Velvetleaf (velvetleaf [2]; [19]): 0 | Morningglory plant response rating (morningglory [3]; [18]): 0 | Plant response rating, Morningglory (morningglory [3]; [19]): 0 | Morningglory plant response rating (0 to 100 scale) (morningglory [4]): 0 | Morningglory plant response rating (morningglory [4]; [19]): 0 | Velvetleaf plant response rating (0 to 100 scale) (velvetleaf [5]): 0 | Velvetleaf plant response rating (velvetleaf [5]; [19]): 0 | Wheat plant response rating (wheat [6]; [18]): 0 | Plant response rating, Wheat (wheat [6]; [19]): 0 | Pigweed plant response rating (pigweed [7]; [18]): 0 | Plant response rating, Pigweed (pigweed [7]; [19]): 0 | Plant response rating, Barnyardgrass (barnyardgrass [8]; [20]): 0 | Barnyardgrass plant response rating (barnyardgrass [8]; [18]): 0 | Barnyardgrass plant response rating (barnyardgrass [9]; [18]): 0 | Plant response rating, Barnyardgrass (barnyardgrass [9]; [19]): 0 | Plant response rating, Rice (rice): 0 | Foxtail, Giant plant response rating (giant foxtail [10]; [18]): 0 | Plant response rating, Foxtail, Giant (giant foxtail [10]; [19]): 0 | Pigweed plant response rating (0 to 100 scale) (pigweed [11]): 0 | Pigweed plant response rating (pigweed [11]; [19]): 0 | Wheat plant response rating (0 to 100 scale) (wheat [12]): 0 | Wheat plant response rating (wheat [12]; [19]): 0 | Plant response rating, Foxtail, Giant (giant foxtail [13]; [20]): 0 | Foxtail, Giant plant response rating (giant foxtail [13]; [19]): 0 | Plant response rating, Ducksalad (Heteranthera limosa): 0 | Plant response rating, Crabgrass, Large (large (Lg) crabgrass [14]; [20]): 0 | Crabgrass, Large plant response rating (large (Lg) crabgrass [14]; [18]): 0 | Crabgrass, Large plant response rating (large (Lg) crabgrass [15]; [18]): 0 | Plant response rating, Crabgrass, Large (large (Lg) crabgrass [15]; [19]): 0 | Corn plant response rating (corn [16]; [18]): 0 | Plant response rating, Corn (corn [16]; [19]): 0 | Plant response rating, Barnyardgrass (barnyardgrass [17]): 0

FC(F)(F)c1cnn(-c2c(Cl)cccc2Oc2ncc(Br)cn2)c1 [Compound 168]
Plant response rating, Corn (corn [1]; [20]): 0 | Corn plant response rating (corn [1]; [18]): 20 | Plant response rating, Sedge, Umbrella (sedge, umbrella): 80 | Velvetleaf plant response rating (velvetleaf [2]; [18]): 90 | Plant response rating, Velvetleaf (velvetleaf [2]; [19]): 100 | Morningglory plant response rating (morningglory [3]; [18]): 50 | Plant response rating, Morningglory (morningglory [3]; [19]): 100 | Morningglory plant response rating (0 to 100 scale) (morningglory [4]): 20 | Morningglory plant response rating (morningglory [4]; [19]): 80 | Velvetleaf plant response rating (0 to 100 scale) (velvetleaf [5]): 70 | Velvetleaf plant response rating (velvetleaf [5]; [19]): 90 | Wheat plant response rating (wheat [6]; [18]): 10 | Plant response rating, Wheat (wheat [6]; [19]): 50 | Pigweed plant response rating (pigweed [7]; [18]): 100 | Plant response rating, Pigweed (pigweed [7]; [19]): 100 | Plant response rating, Barnyardgrass (barnyardgrass [8]; [20]): 50 | Barnyardgrass plant response rating (barnyardgrass [8]; [18]): 80 | Barnyardgrass plant response rating (barnyardgrass [9]; [18]): 50 | Plant response rating, Barnyardgrass (barnyardgrass [9]; [19]): 90 | Plant response rating, Rice (rice): 30 | Foxtail, Giant plant response rating (giant foxtail [10]; [18]): 70 | Plant response rating, Foxtail, Giant (giant foxtail [10]; [19]): 90 | Pigweed plant response rating (0 to 100 scale) (pigweed [11]): 100 | Pigweed plant response rating (pigweed [11]; [19]): 100 | Wheat plant response rating (0 to 100 scale) (wheat [12]): 20 | Wheat plant response rating (wheat [12]; [19]): 20 | Plant response rating, Foxtail, Giant (giant foxtail [13]; [20]): 100 | Foxtail, Giant plant response rating (giant foxtail [13]; [19]): 100 | Plant response rating, Ducksalad (Heteranthera limosa): 90 | Plant response rating, Crabgrass, Large (large (Lg) crabgrass [14]; [20]): 100 | Crabgrass, Large plant response rating (large (Lg) crabgrass [14]; [18]): 100 | Crabgrass, Large plant response rating (large (Lg) crabgrass [15]; [18]): 70 | Plant response rating, Crabgrass, Large (large (Lg) crabgrass [15]; [19]): 90 | Corn plant response rating (corn [16]; [18]): 20 | Plant response rating, Corn (corn [16]; [19]): 30 | Plant response rating, Barnyardgrass (barnyardgrass [17]): 0

Fc1ccc(Oc2ncc(Cl)cn2)c(-n2cc(Br)cn2)c1 [Compound 53]
Plant response rating, Corn (corn [1]; [21]): 10 | Plant response rating, Sedge, Umbrella (sedge, umbrella): 0 | Plant response rating, Velvetleaf (velvetleaf [2]; [21]): 100 | Plant response rating, Morningglory (morningglory [3]; [21]): 100 | Morningglory plant response rating (morningglory [4]; [22]): 60 | Velvetleaf plant response rating (velvetleaf [5]; [22]): 100 | Plant response rating, Wheat (wheat [6]; [21]): 30 | Plant response rating, Pigweed (pigweed [7]; [21]): 100 | Plant response rating, Barnyardgrass (barnyardgrass [8]; [21]): 100 | Plant response rating, Barnyardgrass (barnyardgrass [9]; [21]): 90 | Plant response rating, Rice (rice): 0 | Plant response rating, Foxtail, Giant (giant foxtail [10]; [21]): 80 | Pigweed plant response rating (pigweed [11]; [22]): 100 | Wheat plant response rating (wheat [12]; [22]): 0 | Foxtail, Giant plant response rating (giant foxtail [13]; [22]): 100 | Plant response rating, Ducksalad (Heteranthera limosa): 75 | Plant response rating, Crabgrass, Large (large (Lg) crabgrass [14]; [21]): 100 | Plant response rating, Crabgrass, Large (large (Lg) crabgrass [15]; [21]): 70 | Plant response rating, Corn (corn [16]; [21]): 30 | Plant response rating, Barnyardgrass (barnyardgrass [17]): 0
